# How the values were obtained:
# [1] = In vivo safety profile and toxicity (maximum tolerated dose) in mice
# Experimental: Aminomethyllactone 27 was evaluated for any possible toxicity at oral doses higher than the anticipated dose that will be used for antimicrobial efficacy. The maximum tolerated dose (MTD) in mice was calculated and was expected to be several folds higher than therapeutic dose. The MTD is a dose that produces neither mortality nor more than a 10% decrement in body weight nor clinical signs of toxicity or a significant change in renal and/or hepatic function in the survivors. Having shown that 10 mg/kg in mice is not toxic in our initial mouse model studies, 10, 25, 50, 100, 200, 400 mg/kg doses of 27 were chosen, each dose was given one time to one mouse, and the mice were observed daily for 14 days for body weight gain, clinical signs of abnormality, and renal and hepatic function.
# At the end of the study, all animals appeared to be healthy and have good body weight. They were then euthanized, and the major organ (heart, liver, lung, kidney, spleen, and intestines) tissues were harvested for histological examination of toxicity. The evaluator was blinded to the treatment status of each mouse at the time of examination. […] Overall, 27 appears to be non-toxic to mice.
# Caco-2 cells = assay: In vitro cytotoxicity (MTS assay) against Caco-2 cells; settings: tested at 32, 64 and 128 μg/mL, two hours
# Experimental: Percent viable mammalian cells (measured as average absorbance ratio (test agent relative to DMSO) for cytotoxicity analysis of the compounds (tested in triplicate) at 32, 64 and 128 μg/mL against Caco-2 cells using the MTS 3-(4,5-dimethylthiazol-2-yl)-5-(3-carboxymethoxyphenyl)-2-(4-sulfophenyl)-2H-tetrazolium) assay. Dimethyl sulfoxide (DMSO) was used as a negative control to determine a baseline measurement for the cytotoxic impact of each compound. The absorbance values represent an average of a minimum of three samples analyzed for each compound. Error bars represent standard deviation values for the absorbance values. A two-way ANOVA, with post hoc Dunnet's multiple comparisons test, determined statistical difference (denoted by the asterisk, *) (P<0.05) between the values obtained for each compound and DMSO (negative control, used as solvent for the compounds). […]
# Method: Compounds were assayed (at concentrations of 32, 64 and 128 μg/mL) against a human colorectal (Caco-2) cell line to determine the potential toxic effect to mammalian cells in vitro. […] Absorbance readings (at OD490) were taken using a kinetic microplate reader (Molecular Devices, Sunnyvale, CA, USA). The quantity of viable cells after treatment with each compound was expressed as a percentage of the viability of DMSO-treated control cells (average of triplicate wells±standard deviation). […]
SMILES,toxicity in initial mouse model studies ([1]; 10 mg/kg in mice),"histological examination of major organ tissues ([1]; heart, liver, lung, kidney, spleen, intestines, end of 14-day study)","toxicity to mice ([1]; single oral doses 10, 25, 50, 100, 200, 400 mg/kg, observed 14 days)",concentration up to which non-toxic to Caco-2 cells (Caco-2 cells) [µg/mL]
COc1cc(C2OC(=O)C(CN3CCCCC3)C2c2ccccc2Br)ccc1OCc1ccccc1 (racemic) [Compound 27],not toxic,within normal histologic limits,non-toxic,128
C=C1C(=O)O[C@H](c2ccccc2O)[C@@H]1c1cccc(C#N)c1 (racemic) [Compound 50],,,,32
